Measured values taken from patent US20160313303A1, “BICOMPATIBLE LIQUID AND METHOD FOR SCREENING SAME” (KABUSHIKI KAISHA TOYOTA CHUO KENKYUSHO, priority 2015, published 2016).
Where two headings read alike, the source gives them in different places.

Key:
[1] = tested on: Human airway epithelial cell line BEAS-2B; assay: Cytotoxicity test (WST-8 assay) after direct contact of test liquids with cells for about 2 hours; normalized cell survival rate; conditions: direct contact with test liquid about 2 hours, WST-8 24 hours after contact, control liquid (0.5% FBS-containing RPMI-1640) = 1
[2] = tested on: leaves of Arabidopsis thaliana
Description: (§1) Further, the leaves used for the test after observation were soaked in water over 16 hours followed by observation. Water was used as a control. Although water is cytotoxic to naked cells, it is not cytotoxic to cells having cell walls, and thus could be used as a control.

[3] = tested on: leaves of Arabidopsis thaliana; assay: Soaking of plant leaves in organic solvents, observation of appearance; conditions: for change in the appearance of leaves: leaf of A. thaliana soaked in the solvent, observed after 2 hours
Description: as §1

[4] = tested on: human airway epithelial cells Calu-3; assay: WST-8 absorbance of cells on porous support after contact with solutions of PFOA in hydrofluoroether; assay type: cell-based; conditions: PFOA in hydrofluoroether (C4F9OC2H5); for absorbance (WST-8): 15 hours
Description: In the present Example, hydrofluoroether (C4F9OC2H5) was used as the non-hydrophilic liquid and perfluorooctanoic acid (PFOA) was used as the non-hydrophilic substance. Solutions of PFOA in hydrofluoroether having various PFOA concentrations ([…], 1 and 10 g/L) were prepared. The solutions correspond to the second liquid of the present disclosure.
In the similar manner as Example 4 except that the solutions of PFOA in hydrofluoroether were used, the procedure was carried out up to the pre-cultivation step. Thereafter the cultivation step was carried out by using the solutions as the second liquid and leaving the device in the CO2 incubator for 15 hours.
Thereafter […], was removed from the cavity of the insert 24, 200 μl of an aqueous solution of a medium containing WST-8 (2-(2-methoxy-4-nitrophenyl)-3(4-nitrophenyl)-5-(2,4-disulfophenyl)-2H-tetrazolium), which is a kind of a tetrazolium salt, was added and the device was let to stand in the CO2 incubator for 20 minutes for cultivation.
Thereafter 100 μl of the medium was transferred from the insert 24 of the cell structure into a microplate and the absorbance at the wavelengths 450 nm and 600 nm was measured.

[5] = tested on: human airway epithelial cells Calu-3; assay: Transepithelial electric resistance (TER) of cells on porous support after contact with non-hydrophilic liquids; assay type: cell-based; conditions: Calu-3, 3 hours contact with 200 ul liquid, TER after 24 hours in fresh medium, FIG. 18
Description: In the present Example, an action of non-hydrophilic liquids having the fluorocarbon structure was evaluated using human airway epithelial cells Calu-3. As a device for evaluation, the evaluation device 20 illustrated in FIG. 16 was used. […] At the bottom of each insert, a porous support 28 is provided that can retain and cultivate cells.
Cells were inoculated on each support 28 in the insert 24 and the space in the well 22 other than the insert 24 and the cavity in the insert 24 were filled with the cell growth medium. The evaluation device 20 was then left to stand in a CO2 incubator for a few days to allow dense growth of cells on the whole upper surface of the support 28, thereby carrying out the pre-cultivation step. In the pre-cultivation step, the transepithelial electric resistance (TER) was measured over time to confirm that a barrier (coverage and functional tight junctions) was constructed on the surface of the cells that is in contact with the insert 24.
Next, a cell structure illustrated in FIG. 17 was prepared. […]
After 24 hours, the cells on the support 28 in the cell structure removed from the CO2 incubator were again measured for the transepithelial electric resistance (TER) after removal of the growth medium in order to confirm the extent of formation of the cell barrier. […]

O [P1, Water, reference compound]
Normalized cell survival rate [1]: 0.01

CCO [P2, Ethanol, reference compound]
change in the appearance of leaves [2]: eroded epidermal cells of the leaves of A. thaliana and caused effusion of chlorophyll | Normalized cell survival rate [1]: 0.01

CC(C)=O [P3, Acetone, reference compound]
change in the appearance of leaves [3]: eroded epidermal cells of the leaves of A. thaliana and caused effusion of chlorophyll | change in the appearance of leaves after subsequent soaking in water ([3]; leaves after the 2 hours test soaked in water over 16 hours, compared to control water): caused atrophy (deformation) of leaves of A. thaliana | Normalized cell survival rate [1]: 0.01

CCOCC [P4, Diethyl ether, reference compound]
Normalized cell survival rate [1]: 0.01

O=C(O)C(F)(F)C(F)(F)C(F)(F)C(F)(F)C(F)(F)C(F)(F)C(F)(F)F [PFOA, perfluorooctanoic acid]
PFOA concentration with an action of causing cell death ([4]; Calu-3, 15 hours): ≥ 1 g/L | absorbance (WST-8) ([4]; at or above 1 g/L of PFOA): hardly detected | absorbance (WST-8) ([4]; until PFOA concentration 0.1 g/L): almost at the same level

FC(F)(F)c1cccc(C(F)(F)F)c1 [S1, 1,3-Bis(Trifluoromethyl) Benzene]
Normalized cell survival rate [1]: 0.01

FC(F)(F)C(F)(F)C(F)(F)C(F)(F)C(F)(F)C(F)(F)F [S2, Perfluorohexane, PFC 5060]
effect on cell death or intercellular tight junctions (TER) [5]: significantly promoted cell death and the like

OCC(F)(F)C(F)(F)C(F)(F)C(F)(F)C(F)(F)C(F)F [S4, 1H,1H,7H-Dodecafluoro-1-heptanol]
Normalized cell survival rate [1]: 0.01

COC(F)(F)C(F)(F)C(F)(F)C(F)(F)F [S5, HFE-7100]
Normalized cell survival rate [1]: 1.04

COC(F)(C(F)(F)C(F)(F)F)C(F)(C(F)(F)F)C(F)(F)F (stereo not shown) [S7, HFE-7300]
change in the appearance of leaves [3]: did not change an appearance of leaves of A. thaliana | Normalized cell survival rate [1]: 0.92

C[Si](C)(C)O[Si](C)(C)C [S16, OS-10 (Hexamethyldisiloxane)]
Normalized cell survival rate [1]: 0

C[Si](C)(C)O[Si](C)(C)O[Si](C)(C)C [S17, OS-20 (Octamethyltrisiloxane)]
Normalized cell survival rate [1]: 0.05

C[Si](C)(C)O[Si](C)(C)O[Si](C)(C)O[Si](C)(C)C [S18, OS-30 (Decamethyltetrasiloxane)]
Normalized cell survival rate [1]: 0.92

C[Si]1(C)O[Si](C)(C)O[Si](C)(C)O[Si](C)(C)O[Si](C)(C)O1 [S19, Decamethylcyclopentasiloxane]
Normalized cell survival rate [1]: 0.92

FC(F)(F)C(F)(F)C(F)(F)C(F)(F)C(F)(F)C(F)(F)C(F)(F)C(F)(F)Br [S20, 1-Bromoperfluorooctane]
Normalized cell survival rate [1]: 1.2

COC(F)(F)C(F)(F)C(F)(F)F [S21, HFE-7000]
Normalized cell survival rate [1]: 1.01

HFE-7200 [S6]
change in the appearance of leaves [3]: did not change an appearance of leaves of A. thaliana | effect on cell death or intercellular tight junctions (TER) [5]: had less effect on cell death or intercellular tight junctions than perfluorohexane, which effect was almost the same as the controls | Normalized cell survival rate [1]: 0.88
